pIC50: −log10 of the molar value. Some results are limits rather than exact numbers.

Chain of RORγt (P51449 269-508): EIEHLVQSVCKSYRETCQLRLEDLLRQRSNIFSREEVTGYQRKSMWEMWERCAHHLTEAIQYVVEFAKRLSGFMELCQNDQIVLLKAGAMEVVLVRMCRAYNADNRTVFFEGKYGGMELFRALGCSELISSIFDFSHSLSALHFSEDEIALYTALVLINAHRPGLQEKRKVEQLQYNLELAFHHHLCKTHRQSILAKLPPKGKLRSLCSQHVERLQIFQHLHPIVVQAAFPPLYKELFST

The experiment concerns the target RORγt (Homo sapiens (Human), UniProt P51449). Nature of the experiment: Gal4 ligand binding assay (RORγt Gal fusion luciferase reporter assay in HEK293T cells). To be noted: RORγt inverse agonists in RORγt Gal fusion assay. Type of experiment: cell-based. How it is done:
The N-terminal DNA binding domains (DBD) of the native RORγ and RORγt receptors have been substituted with that of the yeast GAL4-DBD and stably transfected in HEK293T cells that also stably express luciferase under the regulation by upstream activation sequence of yeast Gal4. These cells constitutively express high level RORγ activity due to binding of endogenous co-factors. Both agonist and inverse agonist activity can be detected. The assay was performed according to kit manufacturer's instructions as follows. 10 mM compound stocks were diluted serially 1:3 with DMSO and further diluted with provided media to generate 10 titration points from 60 μM to 3 nM. These treatment conditions were added to the plates as 2× media in 100 μL volume. Each plate includes a positive control with 10 titration points as well as 6 negative control wells with vehicle only, with final DMSO concentration of 0.2%. RORγ reporter cells were rapidly thawed and added to the plates in 100 μL volume. The plates were incubated for 24 h in a 37° C. humidified 5% CO2 incubator. Media was removed before the addition of room temperature luciferous detection substrate. After 5 minute incubation, relative light units (RLUs) were quantified using a plate reading luminometer. Data was normalized to […] with only 0.2%0DMSO. Before establishing internal controls, ursolic acid was used as control.
For the compound `CC(C)c1c(-c2ccc(C(O)(C(F)(F)F)C(F)(F)F)cc2)cc(F)c(CN2CC3(C2)CN(S(C)(=O)=O)C3)c1F` [Example 8, 2-(3′,5′-difluoro-2′-isopropyl-4′-((6-(methylsulfonyl)-2,6-diazaspiro[3.3]heptan-2-yl)methyl)-[1,1′-biphenyl]-4-yl)-1,1,1,3,3,3-hexafluoropropan-2-ol], the pIC50 (in general, −log10 of the IC50, conventionally taken in molar units) is more than 7.30.
As for `CCc1c(-c2ccc(C(O)(C(F)(F)F)C(F)(F)F)cc2)ccc(CN2CC3(C2)CN(S(C)(=O)=O)C3)c1F` [Example 37, 2-(2′-ethyl-3′-fluoro-4′-((6-(methylsulfonyl)-2,6-diazaspiro[3.3]heptan-2-yl)methyl)-[1,1′-biphenyl]-4-yl)-1,1,1,3,3,3-hexafluoropropan-2-ol], the figure is more than 7.30.
As for `CCc1cc(C(O)(C(F)(F)F)C(F)(F)F)ccc1-c1c(F)cc(CN2CC3(C2)CN(S(C)(=O)=O)C3)c(F)c1C(C)C` [Example 85, 2-(2-ethyl-3′,6′-difluoro-2′-isopropyl-4′-((6-(methylsulfonyl)-2,6-diazaspiro[3.3]heptan-2-yl)methyl)-[1,1′-biphenyl]-4-yl)-1,1,1,3,3,3-hexafluoropropan-2-ol], the figure is more than 7.30; as for `CCc1cc(CN2CC3(CCN(S(C)(=O)=O)CC3)C2)ccc1-c1ccc(C(O)(C(F)(F)F)C(F)(F)F)cc1` [Example 33, 2-(2′-ethyl-4′-((7-(methylsulfonyl)-2,7-diazaspiro[3.5]nonan-2-yl)methyl)-[1,1′-biphenyl]-4-yl)-1,1,1,3,3,3-hexafluoropropan-2-ol], 6.60 to 7.30.
As for `CC(C)c1cc(CN2CC3(C2)CN(S(C)(=O)=O)C3)c(F)cc1-c1ccc(C(O)(C(F)(F)F)C(F)(F)F)cc1F` [Example 80, 2-(2,5′-difluoro-2′-isopropyl-4′-((6-(methylsulfonyl)-2,6-diazaspiro[3.3]heptan-2-yl)methyl)-[1,1′-biphenyl]-4-yl)-1,1,1,3,3,3-hexafluoropropan-2-ol], the figure is more than 7.30; as for `CCc1cc(CN2CCC(S(C)(=O)=O)CC2)ccc1-c1ccc(C(O)(C(F)(F)F)C(F)(F)F)cc1` [Example 10, 2-(2′-ethyl-4′-((4-(methylsulfonyl)piperidin-1-yl)methyl)-[1,1′-biphenyl]-4-yl)-1,1,1,3,3,3-hexafluoropropan-2-ol], more than 7.30; as for `CS(=O)(=O)N1CC2(CN(Cc3ccc(-c4ccc(C(O)(C(F)(F)F)C(F)(F)F)cc4)c(C(F)(F)F)c3)C2)C1` [Example 46, 1,1,1,3,3,3-hexafluoro-2-(4′-((6-(methylsulfonyl)-2,6-diazaspiro[3.3]heptan-2-yl)methyl)-2′-(trifluoromethyl)-[1,1′-biphenyl]-4-yl)propan-2-ol], 6.60 to 7.30.
For the compound `CCc1cc(CN2CC3(C2)CN(S(C)(=O)=O)C3)ncc1-c1ccc(C(O)(C(F)(F)F)C(F)(F)F)cc1C` [Example 64, 2-(4-(4-ethyl-6-((6-(methylsulfonyl)-2,6-diazaspiro[3.3]heptan-2-yl)methyl)pyridin-3-yl)-3-methylphenyl)-1,1,1,3,3,3-hexafluoropropan-2-ol], the pIC50 is more than 7.30.
As for `CCc1cc(CN2CCC3(C2)CS(=O)(=O)C3)ccc1-c1ccc(C(O)(C(F)(F)F)C(F)(F)F)cc1` [Example 17, 6-((2-ethyl-4′-(1,1,1,3,3,3-hexafluoro-2-hydroxypropan-2-yl)-[1,1′-biphenyl]-4-yl)methyl)-2-thia-6-azaspiro[3.4]octane 2,2-dioxide], the figure is 6.60 to 7.30.
As for `CC(C)c1c(F)c(CN2CCC3(C2)CN(S(C)(=O)=O)C3)cc(F)c1-c1ccc(C(O)(C(F)(F)F)C(F)(F)F)cc1` [Example 74, 2-(3′,6′-difluoro-2′-isopropyl-4′-((2-(methylsulfonyl)-2,6-diazaspiro[3.4]octan-6-yl)methyl)-[1,1′-biphenyl]-4-yl)-1,1,1,3,3,3-hexafluoropropan-2-ol], the figure is 6.60 to 7.30; as for `CC(C)c1c(F)c(CN2CC3(C2)CN(S(C)(=O)=O)C3)cc(F)c1-c1ccc(C(O)(C(F)(F)F)C(F)(F)F)cc1` [Example 7, 2-(3′,6′-difluoro-2′-isopropyl-4′-((6-(methylsulfonyl)-2,6-diazaspiro[3.3]heptan-2-yl)methyl)-[1,1′-biphenyl]-4-yl)-1,1,1,3,3,3-hexafluoropropan-2-ol], more than 7.30.
As for `CCc1cc(CN2CC3(CCN(C(=O)OC(C)(C)C)C3)C2)ccc1-c1ccc(C(O)(C(F)(F)F)C(F)(F)F)cc1` [Example 38, tert-butyl 2-((2-ethyl-4′-(1,1,1,3,3,3-hexafluoro-2-hydroxypropan-2-yl)-[1,1′-biphenyl]-4-yl)methyl)-2,6-diazaspiro[3.4]octane-6-carboxylate], the figure is 6.60 to 7.30; as for `CCC(C)c1cc(CN2CC3(C2)CN(S(C)(=O)=O)C3)ccc1-c1ccc(C(O)(C(F)(F)F)C(F)(F)F)cc1` (stereo not drawn) [Example 13, 2-(2′-(sec-butyl)-4′-((6-(methylsulfonyl)-2,6-diazaspiro[3.3]heptan-2-yl)methyl)-[1,1′-biphenyl]-4-yl)-1,1,1,3,3,3-hexafluoropropan-2-ol], more than 7.30.
On to `CCc1cc(CN2CC3(C2)CN(S(C)(=O)=O)C3)ncc1-c1ccc(C(O)(C(F)(F)F)C(F)(F)F)cc1` [Example 60, 2-(4-(4-ethyl-6-((6-(methylsulfonyl)-2,6-diazaspiro[3.3]heptan-2-yl)methyl)pyridin-3-yl)phenyl)-1,1,1,3,3,3-hexafluoropropan-2-ol], for which the negative logarithm of the IC50 (pIC50) was more than 7.30.
As for `CCc1cc(CN2CCCC3(C2)CN(S(C)(=O)=O)C3)ccc1-c1ccc(C(O)(C(F)(F)F)C(F)(F)F)cc1` [Example 5, 2-(2′-ethyl-4′-((2-(methylsulfonyl)-2,6-diazaspiro[3.5]nonan-6-yl)methyl)-[1,1′-biphenyl]-4-yl)-1,1,1,3,3,3-hexafluoropropan-2-ol], the figure is more than 7.30; as for `CCc1cc(CN2CC3(C2)CN(S(=O)(=O)C2CC2)C3)ccc1-c1ccc(C(O)(C(F)(F)F)C(F)(F)F)cc1` [Example 41, 2-(4′-((6-(cyclopropylsulfonyl)-2,6-diazaspiro[3.3]heptan-2-yl)methyl)-2′-ethyl-[1,1′-biphenyl]-4-yl)-1,1,1,3,3,3-hexafluoropropan-2-ol], 6.60 to 7.30; as for `COc1cc(CN2CC3(C2)CN(S(C)(=O)=O)C3)ccc1-c1ccc(C(O)(C(F)(F)F)C(F)(F)F)cc1C` [Example 57, 1,1,1,3,3,3-hexafluoro-2-(2′-methoxy-2-methyl-4′-((6-(methylsulfonyl)-2,6-diazaspiro[3.3]heptan-2-yl)methyl)-[1,1′-biphenyl]-4-yl)propan-2-ol], more than 7.30.
Compound `CCc1cc(CN2CC3(C2)CN(S(C)(=O)=O)C3)cnc1-c1ccc(C(O)(C(F)(F)F)C(F)(F)F)cc1` [Example 52, 2-(4-(3-ethyl-5-((6-(methylsulfonyl)-2,6-diazaspiro[3.3]heptan-2-yl)methyl)pyridin-2-yl)phenyl)-1,1,1,3,3,3-hexafluoropropan-2-ol] had a pIC50 of 6.60 to 7.30.
As for `Cc1cc(CN2CC3(CN(Cc4ccncc4)C3)C2)ccc1-c1ccc(C(O)(C(F)(F)F)C(F)(F)F)cc1` [Example 51, 1,1,1,3,3,3-hexafluoro-2-(2′-methyl-4′-((6-(pyridin-4-ylmethyl)-2,6-diazaspiro[3.3]heptan-2-yl)methyl)-[1,1′-biphenyl]-4-yl)propan-2-ol], the figure is less than 6.60; as for `CC(C)c1c(F)c(CN2CC3(C2)CN(S(C)(=O)=O)C3)cc(F)c1-c1ccc(C(O)(C(F)(F)F)C(F)(F)F)cc1F` [Example 86, 1,1,1,3,3,3-hexafluoro-2-(2,3′,6′-trifluoro-2′-isopropyl-4′-((6-(methylsulfonyl)-2,6-diazaspiro[3.3]heptan-2-yl)methyl)-[1,1′-biphenyl]-4-yl)propan-2-ol], more than 7.30; as for `Cc1cc(C(O)(C(F)(F)F)C(F)(F)F)ccc1-c1ccc(CN2CCC3(C2)CS(=O)(=O)C3)cc1C(C)C` [Example 11, 6-((4′-(1,1,1,3,3,3-hexafluoro-2-hydroxypropan-2-yl)-2-isopropyl-2′-methyl-[1,1′-biphenyl]-4-yl)methyl)-2-thia-6-azaspiro[3.4]octane 2,2-dioxide], more than 7.30.
As for `CS(=O)(=O)N1CC2(CN(Cc3ccc(-c4ccc(C(O)(C(F)(F)F)C(F)(F)F)cc4)c(Br)c3)C2)C1` [Example 45, 2-(2′-bromo-4′-((6-(methylsulfonyl)-2,6-diazaspiro[3.3]heptan-2-yl)methyl)-[1,1′-biphenyl]-4-yl)-1,1,1,3,3,3-hexafluoropropan-2-ol], the figure is 6.60 to 7.30; as for `C=C(C)c1cc(CN2CC3(C2)CN(S(C)(=O)=O)C3)ccc1-c1ccc(C(O)(C(F)(F)F)C(F)(F)F)cc1` [Example 44, 1,1,1,3,3,3-hexafluoro-2-(4′-((6-(methylsulfonyl)-2,6-diazaspiro[3.3]heptan-2-yl)methyl)-2′-(prop-1-en-2-yl)-[1,1′-biphenyl]-4-yl)propan-2-ol], more than 7.30; as for `CCc1cc(CN2CC3(C2)CN(S(C)(=O)=O)C3)ccc1-c1ccc(C(O)(C(F)(F)F)C(F)(F)F)cc1Cl` [Example 75, 2-(2-chloro-2′-ethyl-4′-((6-(methylsulfonyl)-2,6-diazaspiro[3.3]heptan-2-yl)methyl)-[1,1′-biphenyl]-4-yl)-1,1,1,3,3,3-hexafluoropropan-2-ol], more than 7.30.

The values above are taken from patent publication US11242350B2, “Spirocyclic ROR-gamma modulators” (Escalier Biosciences B.V., priority 2018, dated 2022).
